Data on 18 compounds can be found in patent US11976061B2, “Preparation of benzimidazolone derivatives as novel diacylglyceride O-acyltransferase 2 inhibitors” (Merck Sharp & Dohme LLC, priority 2020, dated 2024).

Molecules are shown by their SMILES. Read-outs that look alike come from different tables or passages of the source. Bounds are passed on as bounds.

The assay addresses T1, human DGAT2 (hDGAT2) (Homo sapiens, UniProt Q96PD7).
T1 construct: made in house; host or cells: Sf-9 insect cells (baculovirus), membrane fraction
T1 sequence (Q96PD7 1-388): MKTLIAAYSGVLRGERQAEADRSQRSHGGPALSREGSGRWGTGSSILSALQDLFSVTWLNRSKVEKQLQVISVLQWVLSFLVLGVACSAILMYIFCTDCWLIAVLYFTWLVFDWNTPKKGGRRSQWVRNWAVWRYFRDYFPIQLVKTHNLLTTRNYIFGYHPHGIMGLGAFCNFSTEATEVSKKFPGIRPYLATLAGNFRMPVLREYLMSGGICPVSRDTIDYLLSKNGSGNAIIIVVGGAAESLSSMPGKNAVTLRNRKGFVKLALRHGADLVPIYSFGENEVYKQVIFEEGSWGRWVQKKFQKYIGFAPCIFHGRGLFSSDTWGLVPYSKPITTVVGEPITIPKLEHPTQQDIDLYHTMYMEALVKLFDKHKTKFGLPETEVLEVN
Description: DGAT2 Enzymatic Activity Assay. The class given is biochemical. To be noted: membrane prep of Sf-9 cells expressing hDGAT2, 25 μM diolein, 5 μM 13C oleoyl-CoA, 13C18-triolein by LC/MS/MS. How it is done:
Insect Cell Expression and Membrane Preparation
Sf-9 insect cells were maintained in Grace's insect cell culture medium with 10% heated-inactivated fetal bovine serum, 1% Pluronic F-68 and 0.14 μg/ml Kanamycine sulfate at 27° C. in a shaker incubator. After infection with untagged baculovirus expressing human DGAT2 (hDGAT2) at multiplicity of infection (MOI) 3 for 48 hours, cells were harvested. Cell pellets were suspended in buffer containing 10 mM Tris-HCl pH 7.5, 1 mM EDTA, 250 mM sucrose and Complete Protease Inhibitor Cocktail (Sigma Aldrich), and sonicated on ice. Cell debris were removed by centrifugation at 2000×g for 15 minutes. Membrane fractions were isolated by ultracentrifugation (100,000×g), resuspended in the same buffer, and frozen (−80° C.) for later use. The protein concentration was determined with the Pierce™ BCA Protein Assay Kit (Thermo Fisher Scientific). Expression of protein levels was analyzed by immunoblotting with rabbit anti-DGAT2 antibody (Abcam, ab102831) and donkey anti-rabbit IgG H&L Alexa Fluor® 647 (Abcam, ab150075) followed by detection using Typhoon FLA9000 (GE Healthcare).
LC/MS/MS analyses were performed using Thermal Fisher's LX4-TSQ Vantage system. This system consists of an Agilent binary high-performance liquid chromatography (HPLC) pump and a TSQ Vantage triple quadrupole MS/MS instrument. For each sample, 2 μL samples from the top organic layer of in-plate liquid-liquid extraction were injected onto a Thermo Betabasic C4 column (2.1 mm×20 mm, 5 μm particle size). The samples were then eluted using the following conditions; mobile phase: Isopropanol:acetonitrile/10 mM ammonium formate=50/35/15 (v/v/v), flow rate: 0.8 mL/min, temperature: 25° C. Data was acquired in positive mode using a heated electrospray ionization (HESI) interface. The operational parameters for the TSQ Vantage MS/MS instrument were a spray voltage of 3000 V, capillary temperature of 280° C., vaporizer temperature 400° C., sheath gas 45 arbitrary unit, Aux gas 10 arbitrary units, S-lens 165 and collision gas 1.0 mTorr. […] (SRM) chromatograms of ^13C18-triolein (Q1: 920.8>Q3: 621.3) and internal standard ^13C21-triolein (Q1: 923.8>Q3: 617.3) were collected for 33 sec. The peak area was integrated by Xcalibur Quan software. The ratio between the ^13C18triolein generated in the reaction and spiked in internal standard ^13C21-triolein was used to generate percentage inhibition and IC50 values. Compound percentage inhibition was calculated by the following formula: Inhibition %=1−[(compound response−low control)/(high control−low control)]×100%. Potent compounds were titrated and IC50 were calculated by 4 parameter sigmoidal curve fitting formula.
DGAT2 Enzymatic Activity Assay
DGAT2 activity was determined by measuring the amount of enzymatic product ^13C18-triolein (^13C-1,2,3-Tri(cis-9-octadecenoyl)glycerol) using the membrane prep mentioned above. The assay was carried out in ABgene 384-well assay plates in a final volume of 25 μL at rt. The assay mixture contained the following: assay buffer (100 mM Tris·Cl, pH 7.0, 20 mM MgCl2, 5% ethanol), 25 μM of diolein, 5 μM of ^13C oleoyl-CoA and 8 ng/μL of DGAT2 membrane.

The term IC50 denotes the midpoint of a concentration-inhibition curve. Regarding `CC(C)n1c(=O)n(-c2cc(OC(F)(F)C(F)F)ccn2)c2ccc(C(=O)NC3(C)CCS(=O)(=O)CC3)cc21` [Example 120, 3-isopropyl-N-(4-methyl-1,1-dioxidotetrahydro-2H-thiopyran-4-yl)-2-oxo-1-(4-(1,1,2,2-tetrafluoroethoxy)pyridin-2-yl)-2,3-dihydro-1H-benzo[d]imidazole-5-carboxamide], the IC50 (read-out: DGAT2 IC50) is 3.2 nM.

As for `CSc1cccc(-n2c(=O)n(C(C)C)c3cc(C(=O)NC4(C)CCS(=O)(=O)CC4)ccc32)c1` [Example 56, 3-isopropyl-N-(4-methyl-1,1-dioxidotetrahydro-2H-thiopyran-4-yl)-1-(3-(methylthio)phenyl)-2-oxo-2,3-dihydro-1H-benzo[d]imidazole-5-carboxamide], the IC50 (read-out: DGAT2 IC50) was determined as 367 nM.

Take `CC(C)n1c(=O)n(-c2cccc(OC(F)F)c2)c2ccc(C(=O)N[C@]3(C)CCS(=O)(=O)C3)cc21` [Example 23, (R)-1-(3-(Difluoromethoxy)phenyl)-3-isopropyl-N-(3-methyl-1,1-dioxidotetrahydrothiophen-3-yl)-2-oxo-2,3-dihydro-1H-benzo[d]imidazole-5-carboxamide]: the IC50 (read-out: Human DGAT2 IC50) is 63 nM. As for `CC(C)n1c(=O)n(-c2cccc(OC(F)(F)C(F)F)c2)c2ncc(C(=O)N[C@@]3(C)CCS(=O)(=O)C3)cc21` [Example 94, 1-isopropyl-N-[(3S)-3-methyl-1,1-dioxo-thiolan-3-yl]-2-oxo-3-[3-(1,1,2,2-tetrafluoroethoxy)phenyl]imidazo[4,5-b]pyridine-6-carboxamide], the IC50 (read-out: DGAT2 IC50) came out at 108 nM. On the same count and under the same terms, the same measure for `CC(C)n1c(=O)n(-c2cccc(OC(F)F)c2)c2ccc(C(=O)NC3(C)CCS(=O)(=O)CC3)c(F)c21` [Example 126, 1-(3-(Difluoromethoxy)phenyl)-4-fluoro-3-isopropyl-N-(4-methyl-1,1-dioxidotetrahydro-2H-thiopyran-4-yl)-2-oxo-2,3-dihydro-1H-benzo[d]imidazole-5-carboxamide]: 257 nM; for `CC(C)n1c(=O)n(-c2cccc(OC(F)F)c2)c2cc(F)c(C(=O)N[C@]3(C)CCS(=O)(=O)C3)cc21` [Example 113, (R)-1-(3-(Difluoromethoxy)phenyl)-6-fluoro-3-isopropyl-N-(3-methyl-1,1-dioxidotetrahydrothiophen-3-1)-2-oxo-2,3-dihydro-1H-benzo[d]imidazole-5-carboxamide]: 78 nM. On to `CC(C)n1c(=O)n(-c2cccc(OC(F)(F)C(F)F)c2)c2ccc(C(=O)NC3(C)CS(=O)(=O)C3)cc21` [Example 7, 3-isopropyl-N-(3-methyl-1,1-dioxo-thietan-3-yl)-2-oxo-1-[3-(1,1,2,2-tetrafluoroethoxy)phenyl]benz-imidazole-5-carboxamide], for which the IC50 (read-out: Human DGAT2 IC50) was determined as 16 nM. Consider `CCOc1cc(-n2c(=O)n(C(C)C)c3cc(C(=O)NC4(C)CS(=O)(=O)C4)ccc32)c(F)cn1` [Example 16, 1-(2-ethoxy-5-fluoropyridin-4-yl)-3-isopropyl-N-(3-methyl-1,1-dioxidothietan-3-yl)-2-oxo-2,3-dihydro-1H-benzo[d]imidazole-5-carboxamide], for which, for the setting “read-out: Human DGAT2 IC50”, the IC50 came out at 32 nM.

In the case of `CC(C)n1c(=O)n(-c2cccc(OCC(F)F)c2)c2ccc(C(=O)NC3(C)CCS(=O)(=O)CC3)cc21` [Example 11, 1-[3-(2,2-difluoroethoxy)phenyl]-3-isopropyl-N-(4-methyl-1,1-dioxo-thian-4-yl)-2-oxo-benzimidazole-5-carboxamide], the IC50 (read-out: Human DGAT2 IC50) turned out to be 15 nM.

On to `CC1(NC(=O)c2ccc3c(c2)n(C2CC2)c(=O)n3-c2cccc(OC(F)F)c2)CCS(=O)(=O)CC1` [Example 41, 3-Cyclopropyl-1-(3-(difluoromethoxy)phenyl)-N-(4-methyl-1,1-dioxidotetrahydro-2H-thiopyran-4-yl)-2-oxo-2,3-dihydro-1H-benzo[d]imidazole-5-carboxamide], for which the IC50 (read-out: DGAT2 IC50) turned out to be 211 nM.

Take `CC(C)n1c(=O)n(-c2cccc(OC(F)F)c2)c2ccc(C(=O)NC3(C)CCS(=O)(=O)CC3)c(Cl)c21` [Example 128, 4-chloro-1-(3-(difluoromethoxy)phenyl)-3-isopropyl-N-(4-methyl-1,1-dioxidotetrahydro-2H-thiopyran-4-yl)-2-oxo-2,3-dihydro-1H-benzo[d]imidazole-5-carboxamide]: where the note is “read-out: Human DGAT2 IC50”, the IC50 turned out to be 1380 nM.

Take `C[C@@]1(NC(=O)c2ccc3c(c2)n(-c2ccc(F)cc2)c(=O)n3-c2cccc(OC(F)F)c2)CCS(=O)(=O)C1` [Example 3, (R)-1-(3-(difluoromethoxy)phenyl)-3-(4-fluorophenyl)-N-(3-methyl-1,1-dioxidotetrahydrothiophen-3-yl)-2-oxo-2,3-dihydro-1H-benzo[d]imidazole-5-carboxamide]: the IC50 (read-out: Human DGAT2 IC50) was 2.4 nM.

`CC(C)n1c(=O)n(-c2cccc(S(C)(=O)=O)c2)c2ccc(C(=O)NC3(C)CCS(=O)(=O)CC3)cc21` [Example 58, 3-isopropyl-N-(4-methyl-1,1-dioxidotetrahydro-2H-thiopyran-4-yl)-1-(3-(methylsulfonyl)phenyl)-2-oxo-2,3-dihydro-1H-benzo[d]imidazole-5-carboxamide]: the IC50 (read-out: DGAT2 IC50) was more than 9990 nM. The same measure, in the same setting: the result for `CC1(NC(=O)c2ccc3c(c2)n(CC(F)(F)F)c(=O)n3-c2cccc(OC(F)F)c2)CCS(=O)(=O)CC1` [Example 44, 1-(3-(difluoromethoxy)phenyl)-N-(4-methyl-1,1-dioxidotetrahydro-2H-thiopyran-4-yl)-2-oxo-3-(2,2,2-trifluoroethyl)-2,3-dihydro-1H-benzo[d]imidazole-5-carboxamide] reads 87 nM; that for `CC(C)n1c(=O)n(-c2cc(OC(F)F)ncc2F)c2cc(F)c(C(=O)NC3(C)CS(=O)(=O)C3)cc21` [Example 123, 1-(2-(difluoromethoxy)-5-fluoropyridin-4-yl)-6-fluoro-3-isopropyl-N-(3-methyl-1,1-dioxidothietan-3-yl)-2-oxo-2,3-dihydro-1H-benzo[d]imidazole-5-carboxamide], 73 nM. `CC(C)n1c(=O)n(-c2cccc(OC(F)F)c2)c2ccc(C(=O)NC3(C)CCS(=O)(=O)CC3)c(C#N)c21` [Example 129, 4-cyano-1-(3-(difluoromethoxy)phenyl)-3-isopropyl-N-(4-methyl-1,1-dioxidotetrahydro-2H-thiopyran-4-yl)-2-oxo-2,3-dihydro-1H-benzo[d]imidazole-5-carboxamide]: under “read-out: Human DGAT2 IC50”, the IC50 stood at 248 nM. Regarding `CCOc1cc(-n2c(=O)n(C(C)C)c3cc(C(=O)N[C@@]4(C)CCS(=O)(=O)C4)ccc32)c(F)cn1` [Example 17, (S)-1-(2-Ethoxy-5-fluoropyridin-4-yl)-3-isopropyl-N-(3-methyl-1,1-dioxidotetrahydrothiophen-3-yl)-2-oxo-2,3-dihydro-1H-benzo[d]imidazole-5-carboxamide], the IC50 (read-out: Human DGAT2 IC50) was 122 nM. `C[C@@]1(NC(=O)c2ccc3c(c2)n(C2CCC2)c(=O)n3-c2cccc(OC(F)F)c2)CCS(=O)(=O)C1` [Example 37, (R)-3-Cyclobutyl-1-(3-(difluoromethoxy)phenyl)-N-(3-methyl-1,1-dioxidotetrahydrothiophen-3-yl)-2-oxo-2,3-dihydro-1H-benzo[d]imidazole-5-carboxamide]: where the note is “read-out: DGAT2 IC50”, the IC50 worked out at 64 nM.
